{
  "source": "patent US11311010B2",
  "about": "“Lignin biomaterial as agricultural drug carrier” (Max-Planck-Gesellschaft zur Förderung der Wissenschaften …, priority 2016, dated 2022)",
  "key": {"[1]": {"system": "Phaeoacremonium aleophilum", "test": "In vitro test in 96-well plates (spore germination, optical density)", "assay_type": "cell-based", "conditions": "pos. control 50 μg, Pal, well row F", "description": "(§1) The lignin particle-solutions were pipetted in various concentrations (1, 5 and 10 μg/mL) into the 96 wells. Several differing nanoparticles were tested (see FIGS. 10 and 12). Afterwards a spore suspension (in minimal medium) of Esca associated fungi, each fungus separately in three wells, was added to the lignin-particle solution. The final volume was 200 μl per well and 500 spores in those 200 μl (means 2,500 spores/mL). The 96-well plate was incubated at 26° C. for 48 h on a shaker with 120 rpm. The optical density was determined after 24 and 48 h using a lab-bench plate reader (BioRad) at a wavelength of 600 nm.\n(§2) […] The optical density of the medium without spores was also measured.\n(§3) The results of three replicates were afterwards combined to calculate the average value of all samples (see also the standard deviation in FIG. 10).\n(§4) The numbers 1 to 10 and the letters A to H are the labeling of the 96-well plate as well as the grid of the test system. The Numbers 66 to 84 are explained as the tested Lignin-particle solutions, they differ in their composition and fungicide concentration (see also Table 2). The optical density is […] to the activity of the fungicide. […] Therefore higher values of the optical density stand for more sporulation and fungal growths and less biological activity of the lignin formulation (e.g., in A1, A2). A low optical density is characteristic for a high fungal toxicity and bioactivity (see in A5 and A6)."}, "[2]": {"system": "Phaeomoniella chlamydospora", "test": "In vitro test in 96-well plates (spore germination, optical density)", "assay_type": "cell-based", "conditions": "pos. control 50 μg, Pch, well row E", "description": "as §1, §2, §3, §4"}},
  "note": "Values joined by “and” are separate entries in the source; they are usually repeats but may differ in a detail not shown here. Identical values can stand only once.",
  "data": [
    {"smiles": "CP(=O)(O)CCC(N)C(=O)O", "note": "(stereo not shown) [Glufosinat-Ammonium]", "values": [
      {"measurement": "optical density measured at 600 nm", "setting": "[1]; first plate block", "result": "0.220 and 0.212 and 0.206"},
      {"measurement": "optical density measured at 600 nm", "setting": "[1]; second plate block", "result": "0.228 and 0.219 and 0.204"},
      {"measurement": "optical density measured at 600 nm", "setting": "[2]; first plate block", "result": "0.192 and 0.180 and 0.200"},
      {"measurement": "optical density measured at 600 nm", "setting": "[2]; second plate block", "result": "0.201 and 0.192 and 0.203"}
    ]}
  ]
}
